The values that follow come from patent publication US9975880B2, “Imidazolidine-2,4-dione dervatives” (IPSEN PHARMA S.A.S., priority 2013, dated 2018).

Molecules are shown by their SMILES. Converted amounts (≈) assume the structure as drawn.

The subject of series [1] is LNCaP cells. Briefly: Anti-proliferative activity on LNCaP in complete medium. In kind it is cell-based. The settings on record: Homo sapiens, 144 h, complete medium, 144 h incubation, Cell-Titer-Glow, read-out: IC50 on the LNCaP cells in culture (inhibition of cell proliferation by 50%). The procedure:
The anti-proliferative activity of the compounds of the present invention is determined on LNCaP in complete medium by applying the following experimental procedure:
The LNCaP cell type (ATCC, 1740) originates from a prostate carcinoma. This line expresses the androgen receptor and is hormone-dependent.
Maintenance of the LNCaP line is carried out in complete culture medium: RPMI, 10% of fetal calf serum, 2 mM glutamine, 100 U/ml penicillin, 0.1 mg/ml of streptomycin and 0.01M HEPES, 1 mM sodium pyruvate, […]. • Seeding the plates:
The LNCaP line is seeded at 20,000 cells/well in 90 μl of complete medium in 96-well plates coated with poly-D-lysine (Biocoat, Costar). • Treatment of the cells: 24 h after the seeding, the cells are treated with 10 μl/well of compound diluted in the culture medium. The concentrations used are the following: 1 nM/10/30/100/300/1000/3000/10,000 nM. The cells are incubated for 144 h at 37° C., 5% CO2. • Reading: After incubation for 6 days, cell proliferation was determined by Cell-Titer-Glow (CTG) Luminescent Cell Viability Assay. • Results: The experiments are carried out in duplicate and the best compounds are tested twice. […] Anti-Proliferative Activity on DU145 in Complete Medium

Series [2] is described as follows: Evaluation of solubility. In kind it is physicochemical. Particulars: aqueous buffer, kinetic from dmso stock; 100 mM potassium phosphate buffer pH 7.4, 0.1% DMSO, target 100 μM, 1 hour room temperature, LC-MS/MS. The procedure: Test compounds were prepared as stock solutions at 100 mM in DMSO. The stock solutions were diluted, in duplicate, into 100 mM potassium phosphate buffer (pH 7.4) to a target concentration of 100 μM with a final DMSO concentration of 0.1%. The solutions were shaken at 1000 rpm for 1 hour at room temperature followed by centrifugation for 10 minutes at 1200 rpm to precipitate un-dissolved particles. The supernatants were transferred to new tubes and the samples were further prepared as follows: • Undiluted: 5 μL of supernatant to 95 μL of ACN containing internal standard (IS) • 1:10 diluted: 10 μL of the supernatant into 90 μL K-buffer, mix, then transfer 5 μL of 1:10 diluted samples to 95 μL ACN containing IS • 1:100 diluted: 10 μL of the supernatant into 990 μL K-buffer, mix, then transfer 5 μL of 1:100 diluted samples to 95 μL of ACN containing IS
Samples (undiluted, 1:10 diluted, and 1:100 diluted) along with the standards were analyzed by LC-MS/MS.

The subject of series [3] is DU145 cells. Briefly: Anti-proliferative activity on DU145 in complete medium. The series is classed as cell-based. The settings on record: DU145 (no androgen receptor), 144 h, up to 10,000 nM, Cell-Titer-Glow. The procedure: (§1) It is used to evaluate the selectivity of the compounds for androgen receptor expressing cells. No activity of the compounds is expected. • The cells of the DU145 line (ATCC HTB-81) are seeded at 800 cells/well in 90 μl of complete medium in 96-well plates coated with poly-D-lysine (Biocoat, Costar). • Treatment of the cells: 24 h after the seeding, the cells are treated with 10 μl/well of compound diluted in the culture medium. The concentrations used are the following: 1 nM/10/30/100/300/1000/3000/10,000 nM. The cells are incubated for 144 h at 37° C., 5% CO2. • Reading: After incubation for 6 days, cell proliferation was determined by Cell-Titer-Glow (CTG) Luminescent Cell Viability Assay • Results: The experiments are carried out in duplicate and the best compounds are tested twice. A concentration value inhibiting the cell proliferation by 50% (IC50) is calculated.

The test system of series [4] is VCaP cells. Briefly: Anti-proliferative activity on VCaP in complete medium. In kind it is cell-based. Particulars: Homo sapiens, Cell-Titer-Glow, read-out: IC50 on the VCaP cells in culture (inhibition of cell proliferation by 50%). As for the experimental part:
as §1, with “•” for “It is used to evaluate the selectivity of the compounds for androgen receptor expressing cells. No activity of the compounds is expected. •”, “the VCaP” for “the DU145”, “(ATCC CRL-2876)” for “(ATCC HTB-81)”, “at 20000” for “at 800”, “for […]” for “for 6”

In the case of `CC1(C)C(=O)N(c2ccc(S(C)(=O)=O)c(C(F)(F)F)c2)C(=O)N1C/C=C\Cn1cc(-c2ccc(S(C)(=O)=O)c(C(F)(F)F)c2)cn1` [Example 3, (Z)-5,5-dimethyl-3-(4-(methylsulfonyl)-3-(trifluoromethyl)phenyl)-1-(4-(4-(4-(methylsulfonyl)-3-(trifluoromethyl)phenyl)-1H-pyrazol-1-yl)but-2-en-1-yl)imidazolidine-2,4-dione], the figures for the IC50 in series [1] and in series [4] were below 1.5 µM and at most 5 µM, respectively. The same compound returned a solubility at 1 h in series [2] of 0.2 µM (≈ 0.139 µg/mL). For the same compound, the “IC50 on DU145 cells (anti-proliferative effect)” value (from here on “IC50 on DU145 cells”) in series [3] is “no measurable IC50”.
`CC1(C)C(=O)N(c2ccc(C#N)c(C(F)(F)F)c2)C(=O)N1C/C=C\CN1CCN(c2ccc(S(C)(=O)=O)c(C(F)(F)F)c2)C1=O` [Example 10, (Z)-4-(4,4-dimethyl-3-(4-(3-(4-(methylsulfonyl)-3-(trifluoromethyl)phenyl)-2-oxoimidazolidin-1-yl)but-2-en-1-yl)-2,5-dioxoimidazolidin-1-yl)-2-(trifluoromethyl)benzonitrile]: in series [3], the “IC50 on DU145 cells” value is given as “no measurable IC50”. In series [4], the IC50 was at most 5 µM.
As for `CC1(C)C(=O)N(c2ccc(C#N)c(C(F)(F)F)c2)C(=O)N1C/C=C\CN1CCC(c2ccc(C#N)c(C(F)(F)F)c2)C1` (stereo not drawn) [Example 12, (Z)-4-(1-(4-(3-(4-cyano-3-(trifluoromethyl)phenyl)-5,5-dimethyl-2,4-dioxoimidazolidin-1-yl)but-2-en-1-yl)pyrrolidin-3-yl)-2-(trifluoromethyl)benzonitrile], the IC50 was below 1.5 µM in series [1] and at most 5 µM in series [4]. The “IC50 on DU145 cells” value in series [3] was “no measurable IC50”.
In the case of `CC1(C)C(=O)N(c2ccc(C#N)c(C(F)(F)F)c2)C(=O)N1C/C=C\CN1CC(c2ccc(S(C)(=O)=O)c(C(F)(F)F)c2)CC1=O` (stereo not drawn) [Example 13, (Z)-4-(4,4-dimethyl-3-(4-(4-(4-(methylsulfonyl)-3-(trifluoromethyl)phenyl)-2-oxopyrrolidin-1-yl)but-2-en-1-yl)-2,5-dioxoimidazolidin-1-yl)-2-(trifluoromethyl)benzonitrile], the IC50 in series [1] was below 1.5 µM; in series [4], at most 5 µM. In series [3], the “IC50 on DU145 cells” value is on record as “no measurable IC50”.
As for `CC1(C)C(=O)N(c2ccc(C#N)c(C(F)(F)F)c2)C(=O)N1C/C=C\CN1CC(c2ccc(S(C)(=O)=O)c(Cl)c2)CC1=O` (stereo not drawn) [Example 14, (Z)-4-(3-(4-(4-(3-chloro-4-(methylsulfonyl)phenyl)-2-oxopyrrolidin-1-yl)but-2-en-1-yl)-4,4-dimethyl-2,5-dioxoimidazolidin-1-yl)-2-(trifluoromethyl)benzonitrile], in series [2], the solubility at 1 h amounted to 24.1 µM (≈ 15 µg/mL). Further, in series [3], the “IC50 on DU145 cells” value is “no measurable IC50”. Also, in series [4], the IC50 is at most 5 µM.

Broadly, the solubility is how much of the substance goes into solution per volume. Read a low solubility as a poorly soluble substance.
